Results as given in patent publication EP2934149B1, “C6-AZASPIRO IMINOTHIADIAZINE DIOXIDES AS BACE INHIBITORS” (Merck Sharp & Dohme Corp., priority 2012, dated 2014).

How the values were obtained:
[1] = target: soluble human BACE1 catalytic domain (Homo sapiens, UniProt P56817); experiment: BACE1 HTRF FRET Assay; assay type: biochemical; settings: Ki calculated from IC50 using the Cheng-Prusoff equation; QSY7-APPswe-Eu substrate 200 nM final, pH 5.0, 30° C
Experimental: A homogeneous time-resolved FRET assay can be used to determine IC50 values for inhibitors of the soluble human BACE1 catalytic domain. […] This substrate contains an N-terminal QSY7 moiety that serves as a quencher of the C-terminal Europium fluorophore (620nm Em). […] Inhibition of BACE1 cleavage of the QSY7-APP^swe-Eu substrate by inhibitors is manifested as a suppression of 620 nm fluorescence. […] The reactions are incubated at 30° C for 1.5 hours. The 620nm fluorescence is then read on a Rubystar HTRF plate reader (BMG Labtechnologies) using a 50 millisecond delay followed by a 400 millisecond acquisition time window. Inhibitor IC50 values are derived from non-linear regression analysis of concentration response curves.

[2] = target: T1, purified human autoBACE-2 (Homo sapiens, UniProt Q9Y5Z0); experiment: BACE-2 Assay (BACE-HTRF assay); assay type: biochemical; settings: Ki calculated from IC50 using the Cheng-Prusoff equation; QSY7-EISEVNLDAEFC-Eu-amide substrate 200 nM final, pH 5.0, 30°C; read-out: BACE2 Ki
T1 sequence (Q9Y5Z0 63-473 limits assumed): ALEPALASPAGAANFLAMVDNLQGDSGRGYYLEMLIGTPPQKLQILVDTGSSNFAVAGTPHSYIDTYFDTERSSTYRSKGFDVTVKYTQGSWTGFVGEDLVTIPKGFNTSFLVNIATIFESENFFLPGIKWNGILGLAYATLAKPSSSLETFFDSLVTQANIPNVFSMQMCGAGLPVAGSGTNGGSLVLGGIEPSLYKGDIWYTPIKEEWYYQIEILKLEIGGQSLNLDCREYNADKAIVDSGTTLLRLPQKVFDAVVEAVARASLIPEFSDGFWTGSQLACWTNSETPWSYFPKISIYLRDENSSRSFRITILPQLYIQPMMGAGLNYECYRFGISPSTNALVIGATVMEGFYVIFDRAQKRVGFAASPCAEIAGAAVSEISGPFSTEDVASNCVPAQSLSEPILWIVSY
Experimental: Inhibitor IC50's at purified human autoBACE-2 are determined in a time-resolved endpoint proteolysis assay that measures hydrolysis of the QSY7-[…]-Eu-amide FRET peptide substrate (BACE-HTRF assay). […] Inhibitor compounds, prepared at 3x the desired final concentration in 1x BACE assay buffer (20 mM sodium acetate pH 5.0,10% glycerol, 0.1% Brij-35) supplemented with 7.5% DMSO are pre-incubated with an equal volume of autoBACE-2 enzyme diluted in 1x BACE assay buffer (final enzyme concentration 1 nM) in black 384-well NUNC plates for 30 minutes at 30°C. […] DMSO is present at 5% final concentration in the assay. Following laser excitation of sample wells at 320 nm, the fluorescence signal at 620 nm is collected for 400 ms following a 50 µs delay on a RUBYstar HTRF plate reader (BMG Labtechnologies). Raw RFU data is normalized to maximum (1.0 nM BACE/DMSO) and minimum (no enzyme/DMSO) RFU values. […] The Ki values are calculated from the IC50 using the Cheng-Prusoff equation.

Chain of soluble human BACE1 catalytic domain (P56817 75-416 limits assumed): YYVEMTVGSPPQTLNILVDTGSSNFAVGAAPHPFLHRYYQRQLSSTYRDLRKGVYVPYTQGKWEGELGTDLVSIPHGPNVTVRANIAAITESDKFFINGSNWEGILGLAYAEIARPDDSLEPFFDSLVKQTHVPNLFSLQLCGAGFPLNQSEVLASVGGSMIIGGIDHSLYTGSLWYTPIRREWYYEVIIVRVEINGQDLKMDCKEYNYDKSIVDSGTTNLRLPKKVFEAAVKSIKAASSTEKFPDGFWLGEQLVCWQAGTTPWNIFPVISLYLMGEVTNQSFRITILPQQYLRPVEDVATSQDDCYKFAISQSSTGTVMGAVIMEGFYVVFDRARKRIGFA

SMILES	Ki [1] [nM]	Ki [2] [nM]
COCC(=O)Nc1ccc(F)c([C@@]2(C)NC(=N)N(C)S(=O)(=O)[C@@]23CCNC3)c1 [Example 97]	1040	782
COC1CC(CN2CC[C@]3(C2)[C@@](C)(c2cc(NC(=O)c4ccc(F)cn4)ccc2F)NC(=N)N(C)S3(=O)=O)C1 (stereo partly drawn) [Example 44]	120	52
CC(C)CS(=O)(=O)N1CC[C@]2(C1)[C@@](C)(c1cc(NC(=O)c3ccc(F)cn3)ccc1F)NC(=N)N(C)S2(=O)=O [Example 90]	48	29
CCCCN1CC[C@]2(C1)[C@@](C)(c1cc(NC(=O)c3ccc(F)cn3)ccc1F)NC(=N)N(C)S2(=O)=O [Example 52]	73	61
CN1C(=N)N[C@](C)(c2cc(NC(=O)c3ccc(F)cn3)ccc2F)[C@]2(CCN(S(=O)(=O)C3CCCC3)C2)S1(=O)=O [Example 84]	2	2
CN1C(=N)N[C@](C)(c2cc(NC(=O)c3ccc(F)cn3)ccc2F)[C@]2(CCN(S(=O)(=O)CC(F)(F)F)C2)S1(=O)=O [Example 74]	2	4
COc1ccc(C(=O)Nc2ccc(F)c([C@@]3(C)NC(=N)N(C)S(=O)(=O)[C@@]34CCN(S(=O)(=O)c3ccc(F)cc3)C4)c2)nc1 [Example 58]	3	20
CN1C(=N)N[C@](C)(c2cc(NC(=O)c3ccc(F)cn3)ccc2F)[C@@]2(CCN(S(=O)(=O)C3CCCC3)C2)S1(=O)=O [Example 85]	41	37
CC(C)CS(=O)(=O)N1CC[C@@]2(C1)[C@@](C)(c1cc(NC(=O)c3ccc(F)cn3)ccc1F)NC(=N)N(C)S2(=O)=O [Example 77]	2	3
CN1C(=N)N[C@](C)(c2cc(NC(=O)c3ccc(F)cn3)ccc2F)[C@@]2(CCN(Cc3cnco3)C2)S1(=O)=O [Example 54]	54	74
CCS(=O)(=O)N1CC[C@@]2(C1)[C@@](C)(c1cc(NC(=O)c3ccc(OC)cn3)ccc1F)NC(=N)N(C)S2(=O)=O [Example 56]	1	6
CN1C(=N)N[C@](C)(c2cc(NC(=O)c3ccc(F)cn3)ccc2F)[C@]2(CCN(Cc3ccccn3)C2)S1(=O)=O [Example 41]	3	6
CN1C(=N)N[C@](C)(c2cc(NC(=O)c3ccc(F)cn3)ccc2F)C2(CCN(C(=O)C3CC3)C2)S1(=O)=O (stereo partly drawn) [Example 5]	2	3.1
COc1ccc(C(=O)Nc2ccc(F)c([C@@]3(C)NC(=N)N(C)S(=O)(=O)[C@]34CCN(S(=O)(=O)C3CC3)C4)c2)nc1 [Example 64]	40	140
CN1C(=N)N[C@](C)(c2cc(NC(=O)c3ccc(F)cn3)ccc2F)[C@]2(CCN(S(=O)(=O)C3CC3)C2)S1(=O)=O [Example 79]	1	2
CN1C(=N)N[C@](C)(c2cc(NC(=O)c3ccc(F)cn3)ccc2F)[C@@]2(CCN(Cc3cocn3)C2)S1(=O)=O [Example 49]	33	21
CCS(=O)(=O)N1CC[C@@]2(C1)[C@@](C)(c1cc(NC(=O)c3ccc(F)cn3)ccc1F)NC(=N)N(C)S2(=O)=O [Example 76]	2	4
COc1ccc(C(=O)Nc2ccc(F)c([C@@]3(C)NC(=N)N(C)S(=O)(=O)[C@]34CCN(S(=O)(=O)c3ccc(F)cc3)C4)c2)nc1 [Example 71]	24	30
COc1ccc(C(=O)Nc2ccc(F)c([C@@]3(C)NC(=N)N(C)S(=O)(=O)[C@@]34CCN(S(C)(=O)=O)C4)c2)nc1 [Example 55]	3	10
CN1C(=N)N[C@](C)(c2cc(NC(=O)c3ccc(F)cn3)ccc2F)[C@@]2(CCN(Cc3cccnc3)C2)S1(=O)=O [Example 46]	54	40
CCS(=O)(=O)N1CC[C@]2(C1)[C@@](C)(c1cc(NC(=O)c3ccc(OC)cn3)ccc1F)NC(=N)N(C)S2(=O)=O [Example 69]	33	157
COc1ccc(C(=O)Nc2ccc(F)c([C@@]3(C)NC(=N)N(C)S(=O)(=O)[C@@]34CCN(S(=O)(=O)C3CC3)C4)c2)nc1 [Example 60]	1	4
CN1C(=N)N[C@](C)(c2cc(NC(=O)c3ccc(F)cn3)ccc2F)[C@]2(CCN(S(=O)(=O)Cc3cccnc3)C2)S1(=O)=O [Example 80]	2	5
CN1C(=N)N[C@](C)(c2cc(NC(=O)c3ccc(F)cn3)ccc2F)[C@]2(CCN(S(=O)(=O)c3ccc(F)cc3)C2)S1(=O)=O [Example 73]	3	10
CN1C(=N)N[C@](C)(c2cc(NC(=O)c3ccc(F)cn3)ccc2F)C2(CCNC2)S1(=O)=O (stereo partly drawn) [Example 2]	19.5	30
CN1C(=N)N[C@](C)(c2cc(NC(=O)c3ccc(F)cn3)ccc2F)[C@]2(CCN(S(=O)(=O)c3cn[nH]c3)C2)S1(=O)=O [Example 83]	5	11

Other lines, results leading:

Ki [1] [nM]	Ki [2] [nM]	SMILES
20	40	COc1ccc(C(=O)Nc2ccc(F)c([C@@]3(C)NC(=N)N(C)S(=O)(=O)[C@]34CCN(S(=O)(=O)c3cn[nH]c3)C4)c2)nc1 [Example 67]
51	329	COc1ccc(C(=O)Nc2ccc(F)c([C@@]3(C)NC(=N)N(C)S(=O)(=O)[C@]34CCN(Cc3cncnc3)C4)c2)nc1 [Example 26]
2	7	CN1C(=N)N[C@](C)(c2cc(NC(=O)c3ccc(F)cn3)ccc2F)[C@]2(CCN(S(=O)(=O)c3ccccc3)C2)S1(=O)=O [Example 78]
6	38	COc1ccc(C(=O)Nc2ccc(F)c([C@@]3(C)NC(=N)N(C)S(=O)(=O)[C@@]34CCN(S(=O)(=O)c3cn(C)cn3)C4)c2)nc1 [Example 61]
34	54	CN1C(=N)N[C@](C)(c2cc(NC(=O)c3ccc(F)cn3)ccc2F)[C@@]2(CCN(S(C)(=O)=O)C2)S1(=O)=O [Example 88]
30	142	COc1ccc(C(=O)Nc2ccc(F)c([C@@]3(C)NC(=N)N(C)S(=O)(=O)[C@]34CCN(Cc3cccnc3)C4)c2)nc1 [Example 23]
8	24	CN1C(=N)N[C@](C)(c2cc(NC(=O)c3ccc(F)cn3)ccc2F)[C@]2(CCN(S(=O)(=O)c3cn(C)cn3)C2)S1(=O)=O [Example 81]
91	201	COc1ccc(C(=O)Nc2ccc(F)c([C@@]3(C)NC(=N)N(C)S(=O)(=O)[C@]34CCN(CC3CC(OC)C3)C4)c2)nc1 (stereo partly drawn) [Example 21]
54	388	COc1ccc(C(=O)Nc2ccc(F)c([C@@]3(C)NC(=N)N(C)S(=O)(=O)[C@]34CCN(Cc3cnn(C)c3)C4)c2)nc1 [Example 27]
47	158	COc1ccc(C(=O)Nc2ccc(F)c([C@@]3(C)NC(=N)N(C)S(=O)(=O)[C@]34CCN(Cc3cocn3)C4)c2)nc1 [Example 18]
5	9	CN1C(=N)N[C@](C)(c2cc(NC(=O)c3ccc(F)cn3)ccc2F)C2(CCN(S(C)(=O)=O)C2)S1(=O)=O (stereo partly drawn) [Example 3]
4	7	CN1C(=N)N[C@](C)(c2cc(NC(=O)c3ccc(F)cn3)ccc2F)[C@]2(CCN(S(C)(=O)=O)C2)S1(=O)=O [Example 75]
28	237	COc1ccc(C(=O)Nc2ccc(F)c([C@@]3(C)NC(=N)N(C)S(=O)(=O)[C@]34CCN(Cc3cnco3)C4)c2)nc1 [Example 28]
51	188	COc1ccc(C(=O)Nc2ccc(F)c([C@@]3(C)NC(=N)N(C)S(=O)(=O)[C@]34CCN(CC3CCOC3)C4)c2)nc1 (stereo partly drawn) [Example 20]
151	184	CN1C(=N)N[C@](C)(c2cc(NC(=O)c3ccc(F)cn3)ccc2F)[C@@]2(CCN(Cc3cnn(C)c3)C2)S1(=O)=O [Example 51]
20	70	COc1ccc(C(=O)Nc2ccc(F)c([C@@]3(C)NC(=N)N(C)S(=O)(=O)[C@]34CCN(Cc3cscn3)C4)c2)nc1 [Example 19]
